# Reference: patent US20040014142A1, “Differential diagnosis of neurodegeneration” (INNOGENETICS N.V., priority 1998, published 2004)
# How the values were obtained:
# neuromodulin = experiment: CSF neuromodulin level after chemotherapy of children (sandwich ELISA NM2/NM4); type: in vivo, human; settings: child with manifest neurotoxicity and diplegia after MTX; exceeded highest standard
# Procedure: Neuromodulin was also measured with a sandwich-type ELISA, using two epitope-specific monoclonal antibodies (NM2, NM4; Oestreicher et al., 1994). NM2 was selected as capturing antibody, biotinylated NM4 as detector antibody. Recombinant neuromodulin was used as standard.
# (§1) Lumbar punctures were performed for routine analysis either at baseline for diagnostic work-up or just prior to the IT administration of chemotherapy. Five ml of CSF was collected in different polypropylene tubes. One sample was centrifuged immediately at 1500 rpm for 2 minutes to eliminate cells and other insoluble material. The supernatant was stored at −70° C. for subsequent analysis. The number of freeze/thaw cycles was restricted to a minimum. Routine CSF measurement included cytology, protein concentration, glucose, etc.
# tau = settings: in vivo
# Procedure: Total tau was measured with the tau antigen test, using AT120 as capturing antibody and biotinylated HT7-BT2 as detector antibody (INNOTEST hTau antigen, Innogenetics, Gent, Belgium).
# All patients underwent a thoroughly clinical evaluation at the time of diagnosis. Parental informed consent was available.
# as §1
# mice = experiment: Titer after immunization of mice with α-synuclein (coating ELISA); type: in vivo
# Procedure: Alpha-synuclein was purified from 3 liters of induced E. coli cultures resulting in purification of more than 10 mg α-synuclein (more than 90% pure estimated from coumassie and silverstained gels). The protein was injected into mice following several immunization schemes (Table 3). After 4 injections the titer to α-synuclein was evaluated in a coating ELISA.
# [1] = animal 309 (m2), 1°: 50 μg α-synuclein, 2°: 5 μg peptide (IGP1463)
Compound,CSF neuromodulin level (neuromodulin) [pg/mL],CSF tau level (tau) [pg/mL],"Estimated titer in direct coating (mice; animal 308 (m4), 50 μg protein)",Estimated titer in direct coating (mice; [1]),titer on peptide (mice; [1]),"Estimated titer in direct coating (mice; animal 309 (m4), 1°: 50 μg α-synuclein, 2°: 5 μg peptide (IGP1463))","Estimated titer in direct coating (mice; animal 312 (m2), 5 μg α-synuclein protein)","Estimated titer in direct coating (mice; animal 312 (m3), 5 μg α-synuclein protein)","Estimated titer in direct coating (mice; animal 313 (m2), 1°: 50 μg protein, 2°: 5 μg protein)","titer to α-synuclein (serum dilution resulting in OD value twice the background) (mice; six mice, after 4 injections)"
"CN(Cc1cnc2nc(N)nc(N)c2n1)c1ccc(C(=O)N[C@@H](CCC(=O)O)C(=O)O)cc1 [MTX, methotrexate]",> 8000,> 1500,–,–,–,–,–,–,–,–
α-synuclein,–,–,250000,512000,(titer of 2000 on peptide),128000,100000,>512000,2500000,above 100000
